From US12162888B2, “Carboxamides as ubiquitin-specific protease inhibitors” (Valo Early Discovery, Inc., priority 2018, dated 2024)
Where two headings read alike, the source gives them in different places.

Target: T1, USP28 (His-tagged USP28-FL-mammalian) (Homo sapiens, UniProt Q96RU2)
T1 construct: Expression of USP28 (1-1077)-TEV-6*His (pTT5 vector) was carried out in Expi293f cells; made in house; host or cells: Expi293F cells (pTT5 vector)
T1 sequence (Q96RU2 1-1077): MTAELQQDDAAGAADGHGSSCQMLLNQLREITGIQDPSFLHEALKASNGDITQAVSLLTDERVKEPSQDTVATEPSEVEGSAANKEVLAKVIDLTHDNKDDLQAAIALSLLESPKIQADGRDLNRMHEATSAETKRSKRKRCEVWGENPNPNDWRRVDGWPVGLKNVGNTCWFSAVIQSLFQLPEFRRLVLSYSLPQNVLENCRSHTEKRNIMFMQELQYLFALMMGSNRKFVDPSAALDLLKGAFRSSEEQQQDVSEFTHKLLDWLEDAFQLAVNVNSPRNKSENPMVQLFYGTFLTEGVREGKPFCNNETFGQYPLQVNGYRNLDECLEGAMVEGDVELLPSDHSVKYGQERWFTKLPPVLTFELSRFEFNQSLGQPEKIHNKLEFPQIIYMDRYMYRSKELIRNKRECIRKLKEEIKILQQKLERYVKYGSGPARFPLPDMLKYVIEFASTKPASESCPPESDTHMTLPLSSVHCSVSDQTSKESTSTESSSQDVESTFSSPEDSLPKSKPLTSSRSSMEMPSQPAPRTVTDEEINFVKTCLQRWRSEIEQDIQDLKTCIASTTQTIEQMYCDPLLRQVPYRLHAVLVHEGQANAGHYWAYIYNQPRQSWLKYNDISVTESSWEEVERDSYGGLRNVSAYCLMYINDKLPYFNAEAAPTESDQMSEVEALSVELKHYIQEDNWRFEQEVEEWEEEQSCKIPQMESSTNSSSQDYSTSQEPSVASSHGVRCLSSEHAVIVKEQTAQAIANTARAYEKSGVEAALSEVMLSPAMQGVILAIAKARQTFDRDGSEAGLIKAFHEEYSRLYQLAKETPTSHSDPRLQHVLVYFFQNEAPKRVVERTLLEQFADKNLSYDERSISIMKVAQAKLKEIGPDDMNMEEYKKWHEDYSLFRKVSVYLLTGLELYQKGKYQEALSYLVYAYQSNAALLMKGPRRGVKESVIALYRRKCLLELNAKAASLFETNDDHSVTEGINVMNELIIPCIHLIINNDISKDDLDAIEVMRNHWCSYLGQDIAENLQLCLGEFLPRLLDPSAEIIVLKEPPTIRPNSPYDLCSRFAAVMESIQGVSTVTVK
Assay: Ubiquitin-Rhodamine 110 Assay for USP28 Activity, Example A-1(a)
Type: biochemical
Settings: Ubiquitin-Rhodamine 110 assay
Method in brief: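 Full-length His-tagged human USP28 (1-1077), expressed in Expi293F cells, was used at […] with 25 nM Ub-Rh110 (<<Km) in 20 mM Tris pH 8.0, 3 mM BME, 0.03% BGG and 0.01% Triton X-100. Compounds (25 μM-1.3 nM, 10-point) were preincubated with enzyme for 30 min, and the reaction ran 45 min at room temperature before a citric acid stop. Fluorescence was read at 485/535 nm, and IC50 came from 4-parameter fits of percent inhibition.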

[1] = read-out: USP28 A-1(a) IC50 range
[2] = biochemical IC50 range, read-out: USP28 A-1(a)

CN[C@H]1CCN(c2ccc3c(c2)CC[C@H](NC(=O)c2sc4nc(C)cnc4c2N)C3)C1 (single isomer, unassigned) [Example 11-25] gave an IC50 [1] of 50 to 200 nM.

With Cc1ccc2c(N)c(C(=O)N[C@H]3COc4cc(N5C[C@@H](N)[C@@](C)(CF)C5)ccc4C3)sc2n1 [Example 660, 3-amino-N-[(3R)-7-[(3S,4S)-4-amino-3-(fluoromethyl)-3-methylpyrrolidin-1-yl]-3,4-dihydro-2H-1-benzopyran-3-yl]-6-methylthieno[2,3-b]pyridine-2-carboxamide] the IC50 [2] was 1 to 50 nM.

With CN[C@H]1CCN(c2ccc3c(c2)CC[C@@H](NC(=O)c2sc4nc(C)cnc4c2N)C3)C1 (single isomer, unassigned) [Example 11-26] the IC50 [1] was > 2000 nM.

Work on Cc1ccc2c(N)c(C(=O)N[C@H]3COc4cc(N5C[C@H](N)[C@@]6(CCOC6)C5)ccc4C3)sc2n1 (single isomer, unassigned) [Example 439] yielded an IC50 [1] of 1 to 50 nM.

For Cc1ccc2c(N)c(C(=O)N[C@@H]3CCc4cc(N5CCNCC5)ccc4C3)sc2n1 (single isomer, unassigned) [Example 11-22], the IC50 [1] was 50 to 200 nM.

CN[C@@H]1CCN(c2ccc3c(c2)CC[C@@H](NC(=O)c2sc4nc(C)cnc4c2N)C3)C1 (single isomer, unassigned) [Example 11-28] gave an IC50 [1] of 200 to 2000 nM.

For Cc1ccc2c(N)c(C(=O)N[C@H]3COc4cc(N5C[C@H](N)[C@@](C)(CF)C5)ccc4C3)sc2n1 [Example 659, 3-amino-N-[(3R)-7-[(3S,4R)-4-amino-3-(fluoromethyl)-3-methylpyrrolidin-1-yl]-3,4-dihydro-2H-1-benzopyran-3-yl]-6-methylthieno[2,3-b]pyridine-2-carboxamide], the IC50 [2] was 1 to 50 nM.

Cc1ccc2c(N)c(C(=O)N[C@H]3CCc4cc(N5CC6CNCC(C5)O6)cc(F)c4C3)sc2n1 (single isomer, unassigned) [Example 11-39] was tested, and the IC50 [1] was 200 to 2000 nM.

Cc1ccc2c(N)c(C(=O)N[C@@H]3CCc4c(C#N)c(N5CC6CNCC(C5)O6)cc(F)c4C3)sc2n1 (single isomer, unassigned) [Example 14-16] gave an IC50 [1] of 50 to 200 nM.

Cc1nc2sc(C(=O)N[C@H]3CCc4cc(N5CCNCC5)ccc4C3)c(N)c2s1 (single isomer, unassigned) [Example 11-33] showed an IC50 [1] of 200 to 2000 nM.

For CO[C@H]1CN(c2cc(F)c3c(c2C#N)CC[C@H](NC(=O)c2sc4nc(C)ccc4c2N)C3)C[C@@H]1N (single isomer, unassigned) [Example 14-23], the IC50 [1] was 1 to 50 nM.

Compound Cc1ccc2c(N)c(C(=O)N[C@@H]3CCc4nc(N5C[C@@H](CF)[C@@H](N)C5)ncc4C3)sc2n1 [Example 445, 3-amino-N-[(6R)-2-[(3R,4R)-3-amino-4-(fluoromethyl)pyrrolidin-1-yl]-5,6,7,8-tetrahydroquinazolin-6-yl]-6-methylthieno[2,3-b]pyridine-2-carboxamide] has an IC50 [1] of 200 to 2000 nM.
